In US11897918B2, “Compositions and methods to increase production” (priority 2014, dated 2024):
Entries after “also recorded” stand apart in the source; their conditions may differ.

Experiments:
[1] = tested on: influenza H3N2 strain IVR-165 (A/Victoria/361/2011); assay type: cell-based
MDCK cells = assay: Cell viability, VI-CELL trypan blue exclusion; assay type: cell-based
Method: Cell viability assays were performed using MDCK cells treated with 1 uM sulphonamide or DMSO control. Cell viability was monitored over time up to 60 hrs using a VI-CELL machine (Beckman Coulter)(cell viability measured based on trypan blue exclusion). The sulphonamide analog used herein is not a marketed drug, therefore toxicity was conducted to identify cell viability over the course of incubation at the highest tested concentration of 10 μM and 60 hours of contact. […] At least 91% viability is detected in cells treated with sulphonamide.

[2] = tested on: virus-infected host cell culture; assay type: cell-based, influenza; settings: versus control without compound
[3] = tested on: B/Massachusetts/2/2012 (low-expressing); assay: ambr15 mini-bioreactor and shake flask comparison, B strain; assay type: cell-based, influenza B; settings: CDM and DM134 media, shake flasks and 15 ml bioreactors
Method: The two lead compounds were further tested in the commercially available small-scale bioreactor system, ambr15™ (TAP Biosystems). The ambr15 system mimics the characteristics of classical bioreactors at microscale (10-15 ml), controlled by an automated workstation, which enables the rapid evaluation of multiple bioreactor cultures at microscale.
To test both lead compounds were tested side-by-side under controlled conditions, with two infection media formulations (DM134 and CDM) and two flu strains, A/Victoria/361/2011 (IVR-165) (high-expressing) and B/Massachusetts/2/2012 (low-expressing). The infection parameters used in the experiment were as follows: seeding density was 1.0×10^6 cells/ml or 2.5×10^6 cells/mL; pH was 7.1+/−0.02 (pH control by dual control with 0.05N NaOH and CO2 gas); DO was 50% (range 50-80%), controlled by O2 gas; agitation was 1000 rpm (local control); temperature was 34.0° C., locally monitored with bioreactor controller probe; vessel type was Spargeless, extended temperature vessels; and, aeration rate during run was 1 mL/min.
The quantification of HA was carried out by ELISA then was subsequently confirmed by HPLC. It was also shown that AFZ077 was able to boost HA yield in the DM134 medium with both low (1×10^6 per mL) and high (2.5×10^6 per mL) infection cell densities in this system. […] Overall, greater enhancement effect seen for low-expressing strains. […]

[4] = tested on: A/Victoria/361/2011 (IVR-165) (high-expressing); assay: ambr15 mini-bioreactor and shake flask comparison, A strain; assay type: cell-based, influenza A H3N2; settings: CDM and DM134 media, shake flasks and 15 ml bioreactors; listed as AFZ077
A and B strains = assay type: cell-based, influenza; settings: DM134 medium, 2.5×10^6 per mL
B/Massachusetts/02/2012 = assay: Ambr 250 mL bioreactor, B strain; assay type: cell-based, influenza B; settings: any of the doses tested, ambr250
Method: FIG. 13 provides a graph showing HA yields in the B strain tested with BYF589 at concentrations as indicated.
FIG. 14 provides a graph showing HA yields in the B strain tested with AFZ077 at concentrations as indicated.
The results were confirmed using 3 different viruses (a high-, medium-, and poor-expressing strains). […] To confirm these findings in a larger-scale system, TD Ambr™ 250 mL bioreactors were employed. Both of the lead compounds (as well as DMSO alone as negative control, and, no compound/no DMSO as double-negative control) were tested with a high- and low-expressing strains to determine if the observed enhancement in the small-scale cultures can be reproduced in a larger-scale system. The following parameters were used: Spent DM134:Fresh PFM (1:3); Virus Strains were A/Victoria/361/2011 (IVR-165) and B/Massachusetts/02/2012; MOI was 10^−5 for A/Victoria IVR-165 and 10^−4 for B/Massachusetts; ICD: 2.0e6-3.0e6 cells/mL; N-1 Process: 1B (no Medium Exchange); and, Harvest Time was 65-72 hours post-infection. HA yields were measured by two methods: RP-HPLC and HA-ELISA. […] Note that the error bars represent one standard deviation from the mean, to illustrate variability of the HA-ELISA assay between assay repeats.

5HT7 receptor = target: T1, 5HT7 receptor (Canis lupus familiaris, UniProt A0A8I3S709); assay: Dependence of HA enhancement on 5HT7 receptor activity; assay type: cell-based; settings: B/Mass in DM134 media, 65 hrs HA yield by ELISA
T1 construct: endogenous in cells; host or cells: MDCK 33016PF suspension cells (inferred)
T1 sequence (A0A8I3S709 entry or part of it): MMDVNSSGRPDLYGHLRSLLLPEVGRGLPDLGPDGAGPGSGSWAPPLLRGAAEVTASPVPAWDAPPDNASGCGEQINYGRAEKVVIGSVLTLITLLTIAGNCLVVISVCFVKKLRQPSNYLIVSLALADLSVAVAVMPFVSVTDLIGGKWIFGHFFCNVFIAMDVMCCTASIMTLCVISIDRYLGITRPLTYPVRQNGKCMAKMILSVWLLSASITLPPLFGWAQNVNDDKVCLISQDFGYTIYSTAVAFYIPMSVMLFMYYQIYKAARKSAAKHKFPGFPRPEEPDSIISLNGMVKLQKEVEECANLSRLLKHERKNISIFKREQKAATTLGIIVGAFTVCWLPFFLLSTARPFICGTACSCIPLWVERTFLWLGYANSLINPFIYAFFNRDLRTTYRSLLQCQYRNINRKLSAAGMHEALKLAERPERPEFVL
Text: FIG. 15 provides a graph showing that Flu HA yield enhancement by AFZ077 is dependent on decreasing activity of the 5HT7 receptor. Flu B strain (B/Mass) in DM134 media; 65 hrs HA yield by ELISA (μg/ml).
Studies based on Formula 8 (e.g., Compound E) were expanded to identify potential compounds that may share certain mechanisms of action, as summarized in Table 5 below.

[5] = 0 and 60 hr, mass spec
cellular cholesterol = assay: Total cellular cholesterol (Amplex Red); assay type: cell-based
Method: Possible effects of BYF589 as well as various enzyme inhibitors of the pathway on the cell viability and total cellular cholesterol levels were examined. Tested samples included DMSO, BYF589 (1 μM), MEV (100 μM), FTI (0.5 μM), ZA (1 μM) and GTI (0.5 μM).
Free cholesterol is oxidized by cholesterol oxidase to form a cholesterol ketone and H2O2, which then reacts with Amplex Red+HRP to produce the fluorescent product resorufin.

[6] = tested on: influenza in MDCK 33016PF cells; assay type: cell-based; settings: MEV plus BYF
MDCK 33016PF cells = settings: 24 hours; BYF589 1 μM, MEV 100 μM, FTI 0.5 μM, ZA 1 μM, GTI 0.5 μM
influenza H3N2 virus = settings: MOI of 10^−3, 24 hours post infection; cited from earlier work
Subtype A/Texas X223A = assay type: cell-based, influenza A; settings: 0.05 μM
Subtype AH3N2 = assay: SAR study of analogues, HA-ELISA; settings: 0.05 μM, FIG. 7

Cc1cccc(S(=O)(=O)N2CCC[C@@H]2CCN2CCC(C)CC2)c1 [Compound E]
HA yield before the decrease (earlier addition) [1]: about 20 μg/ml
HA yield, compound added 6 hours post infection [1]: about 5 μg/ml
impact on cell viability (MDCK cells; monitored up to 60 hrs): Neither sulphonamide nor pitavastatin had a negative impact on cell viability
cell viability (MDCK cells; up to 10 μM and 60 hours of contact): At least 91%
increase in HA yield at 24 hours, compound added at T=2, 4 [2]: approximately 4 fold
increase in HA yield at 24 hours, compound added at T=6 [2]: no significant increase
increase in HA yield at 24 hours, compound added at time of infection (T=0) [2]: approximately 4 fold
HA yield enhancement, low-expressing B strain [3]: boosts HA yield
HA yield enhancement, high-expressing A strain [4]: much greater enhancement in HA yield; also recorded: Only AFZ077 enhanced yield
HA yield over original yields, high ICD format with AFZ treatment (A and B strains): ~4 fold
increase in HA yield over the controls (B/Massachusetts/02/2012): no significant increase in HA yield
HA enhancing effect in presence of serotonin (5HT) (5HT7 receptor): can be abrogated by adding serotonin (5HT)
loss of compound in media or media+MDCK cells [5]: No loss of compounds was observed

CC(O)(CCO)CC(=O)O (centres unmarked) [MEV, Mevalonate]
cellular cholesterol levels, in combination with BYF (cellular cholesterol; MEV plus BYF): does not replenish cellular cholesterol levels
cellular cholesterol levels, compound alone (cellular cholesterol; normalized to DMSO): no effect on cellular cholesterol levels
HA yield enhancement, in combination with BYF [6]: reduces HA yield enhancement
effect on cell viability (MDCK 33016PF cells): no negative effect on cell viability

COc1ccc(C2=N[C@@H](c3ccc(Cl)cc3)[C@@H](c3ccc(Cl)cc3)N2C(=O)N2CCNC(=O)C2)c(OC(C)C)c1 [Nutlin-3]
copies of viral genome in the supernatant compared with control (influenza H3N2 virus): up to nineteen times more copies of viral genome

CC(C)c1nc(N(C)S(C)(=O)=O)nc(-c2ccc(F)cc2)c1/C=C/[C@@H](O)C[C@@H](O)CC(=O)O [Rosuvastatin, bis[(E)-7-[4-(4-fluorophenyl)-6-isopropyl-2-[methyl(methylsulfonyl)amino]pyrimidin-5-yl](3R,5S)-3,5-dihydroxyhept-6-enoic acid]]
HA yield compared with other commercially available statins (Subtype A/Texas X223A): did not produce the yield potential of comparative statins

CC(C)n1c(/C=C/[C@@H](O)C[C@@H](O)CC(=O)O)c(-c2ccc(F)cc2)c2ccccc21 [fluvastatin, (3R, 5S, 6E)-7-[3-(4-fluorophenyl)-1-(propan-2-yl)-1H-indol-2-yl]-3,4-dihydroxyhept-6-enoic acid]
HA yield compared with pitavastatin (Subtype AH3N2): performed even better than pitavastatin
